Data on 86 compounds can be found in a melting point compilation (Tetko et al.).

The melting point is the temperature of the solid-liquid transition.

SMILES strings stand for the structures.

In turn, `N#Cc1ncn(CC(=O)O)n1` gave a melting point of 96 to 98 °C.
For the compound `Cc1ccc(OCCC(=O)O)cc1C`, the melting point was in the range of 155 to 157 °C.
As for `C=Cc1nc(-c2ccc(Cl)cc2)no1`, the melting point is 62 to 64 °C.
With `COc1cc2c(cc1OC)CN(C(N)=O)CC2`, the melting point lay in the range of 198 to 200 °C.
`NS(=O)(=O)Cc1ccc(Cl)cc1Br` yielded a melting point of 169 to 171 °C.
`Cn1cc(C(=O)O)c(-c2cccnc2)n1` returned a melting point of 201 to 203 °C.
The compound `CC(C)(C)c1ccc(N)c(C(=O)O)c1` gave a melting point of 144 to 146 °C.
The figure for `COc1cc(C#N)cc(Cl)c1OC(C)C` is 84 to 86 °C; for `Nc1cccc(Cn2nc3ccccn3c2=O)c1` it is 127 to 129 °C.
For the compound `Cc1cccc(Oc2ccc(N)cn2)c1C`, the melting point lay within 68 to 70 °C.
The compound `O=C(NCCc1ccc(F)cc1)C1Cc2ccccc2CN1` (stereo unspecified) returned a melting point of 102 to 104 °C.
`COc1ccc(C(CN)c2c[nH]c3ccccc23)cc1` (stereo unspecified) returned a melting point of 127 to 129 °C.
In the case of `Cc1nc2nccc(C(=O)O)n2n1`, the melting point lay within 226 to 228 °C.
In turn, `CC(=O)c1c(C)[nH]c2ccccc12` registered a melting point of 195 to 197 °C.
Then `NS(=O)(=O)c1ccc(S(=O)(=O)Cl)cc1`, with 144 to 146 °C.
`NNC(=S)NCC1CCC1` came in with a melting point of 104 to 106 °C.
`COc1cc(O)ncc1Br`: the melting point lay within 203 to 205 °C.
`CCC(C)C(NC1=NS(=O)(=O)c2ccccc21)C(=O)O` (stereo unspecified) returned a melting point of 203 to 205 °C.
In the case of `CS(=O)(=O)c1ncc[nH]1`, the melting point was 206 to 208 °C.
In the case of `CNC(c1ccc(Cl)cc1)c1ncccn1` (stereo unspecified), the melting point fell in the range of 67 to 69 °C.
In turn, `ClCc1nc(-c2ccoc2)no1` had a melting point of 50 to 52 °C.
Regarding `CCOC(=O)c1ccc(-n2c(C)cc(C=O)c2C)cc1`, the melting point is 113 to 115 °C.
In turn, `Cc1cc(C)n(Cc2cccc(C(=O)O)c2)n1` registered a melting point of 220 to 222 °C.
Regarding `CN(C)S(=O)(=O)c1ccc2[nH]c(=O)c(=O)[nH]c2c1`, the melting point is 319 to 321 °C.
Turning to `OCc1cc(Br)cs1`, the melting point was in the range of 30 to 32 °C.
For the compound `O=C(CCl)N1CCN(C(=O)C2COc3ccccc3O2)CC1` (stereo unspecified), the melting point is 199 to 201 °C.
In turn, `NNC(=O)CSc1n[nH]c(=O)[nH]c1=O` registered a melting point of 225 to 227 °C.
`O=c1c2c(-c3ccco3)csc2nc(S)n1-c1ccccc1` came in with a melting point of 242 to 244 °C.
`CC(C)Cc1ccc(C(=O)O)cc1`: the melting point is 144 to 146 °C.
Then `O=C(O)c1ccn(C2CCCC2)n1`, with 108 to 110 °C; and `O=C(Cc1nc2ccccc2s1)Nc1ccc(Cl)cc1`, with 164 to 166 °C; and `Clc1nc(C=Cc2ccc(Br)cc2)nc2sc3c(c12)CCCC3`, with 168 to 170 °C.
In turn, `CCOc1ccc(NC(=O)CO)cc1` gave a melting point of 150 to 152 °C.
Consider `NS(=O)(=O)c1ccc(F)cc1C(=O)O`, for which the melting point lay in the range of 218 to 220 °C.
As to `CN(N)C(N)=O`, the melting point was 108 to 110 °C.
`NC(=O)CCC(C(=O)O)N1C(=O)c2ccccc2C1=O` (stereo unspecified) yielded a melting point of 161 to 163 °C.
For the compound `Cn1cnc(-c2ccc(N)cc2)n1`, the melting point lay in the range of 138 to 140 °C.
`O=C(O)CSCc1cscn1` showed a melting point of 98 to 100 °C.
Regarding `C#CCn1cnc(-c2ccccc2)c1N`, the melting point is 126 to 128 °C.
As to `OCc1ccc(F)cc1Br`, the melting point was 69 to 71 °C.
`O=C(Nc1ncccc1O)c1ccc(C2SCCS2)cc1` registered a melting point of 114 to 116 °C.
The figure for `O=c1[nH]nnc2c1cnn2-c1ccccc1` is 144 to 146 °C; for `CC(C)CCNC(=O)NC(=O)CCl` it is 93 to 95 °C; for `O=C1C(Br)CCCN1c1ccccc1F` (stereo unspecified) it is 54 to 56 °C.
For `O=C(O)C1CCCOC1c1ccccc1` (stereo unspecified), the melting point was 56 to 58 °C.
The figure for `Cc1cnc2c(Cl)nccc2n1` is 139 to 141 °C; for `COCCNS(=O)(=O)c1ccc(C(=O)O)cc1` it is 254 to 256 °C; for `O=C(O)c1cccc(Cl)c1O` it is 173 to 175 °C.
For the compound `COc1ccc(C(O)c2ccc(OC)cc2C)cc1` (stereo unspecified), the melting point lay in the range of 71 to 73 °C.
`COc1ccc2c(C)cc3nnc(S)n3c2c1` displayed a melting point of 256 to 258 °C.
Then `O=C(O)c1ccc(C(F)F)cc1`, with 205 to 207 °C; and `Cc1cc(N)ccc1C(=O)O`, with 154 to 156 °C; and `O=c1c2ccccc2c(-c2nnc(S)o2)nn1Cc1ccccc1`, with 238 to 242 °C.
On to `O=C(CCSc1ccccc1)c1ccc(F)cc1`, for which the melting point lay in the range of 111 to 113 °C.
`Nc1ccc2c(c1)CCC(=O)N2Cc1ccc(Cl)cc1` returned a melting point of 142 to 144 °C.
Compound `COc1ccc(CN2C(=O)c3ccccc3C2=O)cc1C(=O)O` displayed a melting point of 143 to 145 °C.
Then `Nc1cc(-c2cccc(F)c2F)n[nH]1`, with 117 to 119 °C; and `N#Cc1ccc(F)c(Cl)c1Cl`, with 65 to 67 °C.
With `CCC(=O)c1ccc(OCC(=O)O)cc1`, the melting point is 131 to 133 °C.
`O=C(O)CNC(=O)c1ccccc1Cl`: the melting point is 182 to 184 °C.
`Cn1c(=O)c2ccccc2n2cc3ccccc3c12`: the melting point lay in the range of 164 to 166 °C.
The compound `O=C1C(=O)N(CN2CCN(CCO)CC2)c2ccccc21` had a melting point of 157 to 159 °C.
As for `CC(C)(C)OC(=O)NC(CCS(C)(=O)=O)C(=O)O` (stereo unspecified), the melting point was 99 to 101 °C.
`O=C(O)CCSCc1nc2ccccc2c(=O)[nH]1` gave a melting point of 193 to 195 °C.
`Cc1cc(C(=O)O)nn1-c1cccc(C#N)c1` had a melting point of 249 to 251 °C.
Regarding `O=C(O)CCNS(=O)(=O)c1cccc(Cl)c1`, the melting point lay within 143 to 145 °C.
Turning to `O=C(O)C(=O)Cc1cccs1`, the melting point lay in the range of 163 to 165 °C.
On to `NC(=O)c1ccc(Br)c(F)c1`, for which the melting point was in the range of 167 to 169 °C.
The figure for `NS(=O)(=O)c1ccc([N+](=O)[O-])cc1[N+](=O)[O-]` is 149 to 151 °C; for `O=C(O)c1cc(-c2ccccc2)ccc1Cl` it is 199 to 201 °C.
Consider `O=C(O)CCc1cc(Cl)ccc1Br`, for which the melting point lay within 83 to 85 °C.
`Cn1cc(C=O)c(-c2cc3ccccc3o2)n1` gave a melting point of 151 to 153 °C.
`Nc1ccc(CC(=O)N2CCCc3ccccc32)cc1` yielded a melting point of 141 to 143 °C.
The figure for `Cc1cc(Br)cc(C)c1C#N` is 68 to 70 °C; for `O=C(O)C1CCn2ccnc2C1` (stereo unspecified) it is 231 to 233 °C; for `CC1(O)C(=O)Nc2ccccc21` (stereo unspecified) it is 156 to 158 °C.
In turn, `COc1cc(-c2nnc(S)o2)cc(OC)c1OC` had a melting point of 97 to 99 °C.
The figure for `Nc1cc(I)ccc1O` is 135 to 137 °C; for `CCc1cc(C(=O)O)n[nH]1` it is 191 to 193 °C; for `CC(C)(C)c1ccc(C(=O)C(=O)O)cc1` it is 67 to 69 °C.
`CC(=O)Nc1cnc(NC(C)=O)s1` displayed a melting point of 245 to 247 °C.
`FC(F)(F)c1cnc(-n2cccn2)c(Cl)c1` returned a melting point of 50 to 52 °C.
In turn, `O=C(CCl)Nc1ccc(Br)cc1F` gave a melting point of 133 to 135 °C.
`O=C(O)CCc1nnnn1-c1ccccc1`: the melting point was in the range of 119 to 121 °C.
The compound `N#Cc1cn(-c2ccc([N+](=O)[O-])cc2)nc1N` registered a melting point of 278 to 280 °C.
For the compound `O=C1CN(C(=O)c2ccc(Cl)nc2)CCN1`, the melting point was 163 to 165 °C.
